Source: US20080269170A1, “Novel 2,4-Dianilinopyrimidine Derivatives, the Preparation Thereof, Their Use as Medicaments, Pharmaceutical Compositions and, in Particular, as IKK Inhibitors” (sanofi-aventis, priority 2005, published 2008)
Where a name gives a salt, the structure may show the parent alone.

Row | melting point | SMILES
1 | 139 °C | COc1cc(Nc2ccnc(Nc3ccc(S(=O)(=O)N(CCN4CCCC4)C4CCN(C5CC5)CC4)cc3)n2)ccc1F [Example 156]
2 | 149 to 152 °C | CN(C1CCN(Cc2cccn2C)CC1)S(=O)(=O)c1ccc(Nc2nccc(Nc3ccc(F)c(F)c3)n2)cc1 [Example 164, 4-({4-[(3,4-Difluorophenyl)amino]pyrimidin-2-yl}amino)-N-methyl-N-{1-[(1-methyl-1H-pyrrol-2-yl)methyl]piperidin-4-yl)benzenesulfonamide]
3 | 137.8 °C | CCOP(=O)(CN1CCC(NS(=O)(=O)c2ccc(Nc3nccc(Nc4ccc(F)c(F)c4)n3)cc2)CC1)OCC
4 | 202 to 203 °C | CN(C1CCN(CCC(F)(F)F)CC1)S(=O)(=O)c1ccc(Nc2nccc(Nc3ccc(F)c(F)c3)n2)cc1 [Example 109, 4-({4-[(3,4-Difluorophenyl)amino]pyrimidin-2-yl}amino)-N-methyl-N-[1-(3,3,3-trifluoro-propyl)piperidin-4-yl]benzenesulfonamide]
5 | 236 to 240 °C | CN(C1CCS(=O)(=O)C1)S(=O)(=O)c1ccc(Nc2nccc(Nc3ccc(F)cc3)n2)cc1 (stereo not drawn) [Example 6, N-(1,1-Dioxotetrahydro-1λ^6-thiophen-3-yl)-4-[4-(4-fluorophenylamino)pyrimidin-2-ylamino]-N-methyl-benzenesulfonamide]
6 | 185 °C | CCOP(=O)(CCN1CCC(N(CC2CCCN2)S(=O)(=O)c2ccc(Nc3nccc(Nc4ccc(F)cc4)n3)cc2)CC1)OCC (stereo not drawn) (as salt: hydrochloride)
7 | 93 to 96 °C | CCOP(=O)(CCN1CCC(N(C)S(=O)(=O)c2ccc(Nc3nccc(Nc4ccc(F)c(F)c4)n3)cc2)CC1)OCC
8 | 201 to 202 °C | CN(C1CCN(CC(F)(F)F)CC1)S(=O)(=O)c1ccc(Nc2nccc(Nc3ccc(F)cc3)n2)cc1 [Example 112, 4-({4-[(4-Fluorophenyl)amino]pyrimidin-2-yl}amino)-N-methyl-N-[1-(2,2,2-trifluoroethyl)piperidin-4-yl]benzenesulfonamide]
9 | 203 °C | CN(C1CCC(O)CC1)S(=O)(=O)c1ccc(Nc2nccc(Nc3ccc(F)cc3)n2)cc1 (stereo not drawn) [Example 120, 4-({4-[(4-Fluorophenyl)amino]pyrimidin-2-yl}amino)-N-(4-hydroxycyclohexyl)-N-methylbenzene-sulfonamide]
10 | 125 to 135 °C | CN1CCC(N(CCO)S(=O)(=O)c2ccc(Nc3nccc(Nc4ccc(F)cc4)n3)cc2)CC1 [Example 19, 4-[4-(4-Fluorophenylamino)pyrimidin-2-ylamino]-N-(2-hydroxyethyl)-N-(1-methylpiperidin-4-yl)-benzenesulfonamide]
11 | 187 °C | C#CCN(C1CCN(C)CC1)S(=O)(=O)c1ccc(Nc2nccc(Nc3ccc(F)cc3)n2)cc1 [Example 148, 4-({4-[(4-Fluorophenyl)amino]pyrimidin-2-yl}amino)-N-propargyl-N-(1-methylpiperidin-4-yl)-benzenesulfonamide]
12 | 200 °C | CC(C)(O)CNCCN(C1CCN(Cc2ccccc2)CC1)S(=O)(=O)c1ccc(Nc2nccc(Nc3ccc(F)cc3)n2)cc1 (as salt: hydrochloride)
